Source: the supplement of paper PMC10307832

Legend:
Assay in all cases: relative viability (nuclei count vs DMSO), 5 days (fraction); higher = more cells survive
[1] = compound: CN1C=C(C2=CC=CC=C21)/C=C\3/C4=C(C=CC=N4)NC3=O + O=C(CCCCCCC(=O)Nc1ccccc1)NO [Vorinostat] (partner 1 µM)
Procedure, shortened: (§1)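 Relative viability was taken as the ratio of nuclei in treated wells to nuclei in vehicle wells. Lung cancer cell lines in 1536-well plates received compounds by pin tool one day after seeding, either one drug alone or a fixed anchor-drug dose plus five library-drug doses (not always all listed) in √10 steps. Nuclei were counted on 4× images after 5 days of treatment, and values are medians of duplicate plates.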

[2] = compound: CN1C=C(C2=CC=CC=C21)/C=C\3/C4=C(C=CC=N4)NC3=O + Cc1nc(Nc2ncc(C(=O)Nc3c(C)cccc3Cl)s2)cc(N2CCN(CCO)CC2)n1 [Dasatinib] (partner 0.075 µM)
Procedure, shortened: as §1

[3] = compound: CC(=O)Nc1cccc(-n2c(=O)n(C3CC3)c(=O)c3c(Nc4ccc(I)cc4F)n(C)c(=O)c(C)c32)c1 [Trametinib] + NC(=O)Nc1cc(-c2cccc(F)c2)sc1C(=O)N[C@H]1CCCNC1 [AZD7762] (partner 0.2 µM)
Procedure, shortened: as §1

[4] = compound: CC(=O)Nc1cccc(-n2c(=O)n(C3CC3)c(=O)c3c(Nc4ccc(I)cc4F)n(C)c(=O)c(C)c32)c1 [Trametinib] + COc1cc2c(Oc3ccc(NC(=O)C4(C(=O)Nc5ccc(F)cc5)CC4)cc3F)ccnc2cc1OCCCN1CCOCC1 [Foretinib] (partner 0.25 µM)
Procedure, shortened: as §1

Cell Line	relative viability ([1]; first compound 0.02 µM)	relative viability ([1]; first compound 0.06325 µM)	relative viability ([1]; first compound 0.6325 µM)	relative viability ([1]; first compound 2 µM)	relative viability ([2]; first compound 0.02 µM)	relative viability ([2]; first compound 0.06325 µM)	relative viability ([2]; first compound 0.6325 µM)	relative viability ([2]; first compound 2 µM)	relative viability ([3]; first compound 0.0025 µM)	relative viability ([3]; first compound 0.007906 µM)	relative viability ([3]; first compound 0.025 µM)	relative viability ([3]; first compound 0.07906 µM)	relative viability ([3]; first compound 0.25 µM)	relative viability ([4]; first compound 0.0025 µM)	relative viability ([4]; first compound 0.007906 µM)	relative viability ([4]; first compound 0.025 µM)	relative viability ([4]; first compound 0.07906 µM)	relative viability ([4]; first compound 0.25 µM)	relative viability ([1]; first compound 0.2 µM)	relative viability ([2]; first compound 0.2 µM)
NCI-H650	0.439	0.369	0.383	0.328	0.519	0.494	0.415	0.39	1.06	1.15	1.03	0.614	0.655	1.1	1.17	1.1	1.17	0.839	–	–
NCI-H460	0.958	0.655	0.37	0.545	0.648	0.448	0.44	0.459	0.731	0.751	0.739	0.505	0.338	0.942	0.816	0.549	0.21	0.11	0.685	0.388
NCI-H2085	0.723	0.757	0.735	0.784	0.248	0.273	0.227	0.204	0.81	0.752	0.391	0.518	0.541	0.695	0.732	0.625	0.587	0.626	0.746	0.195
HCC-366	0.239	0.32	0.226	0.174	0.641	0.455	0.593	0.468	0.24	0.24	0.323	0.167	0.143	0.875	0.765	0.768	0.49	0.228	0.28	0.44
EPLC-272H	0.486	0.379	–	0.404	0.344	0.41	–	0.355	0.223	0.242	0.175	0.17	0.225	0.476	0.384	0.26	0.237	0.14	0.465	0.237
201T	1.04	0.879	1.04	1.05	0.587	0.533	0.531	0.413	0.632	0.607	0.473	0.592	0.557	1.05	1	1.02	0.815	0.715	1.03	0.504
NCI-H3122	0.767	1.06	1.02	1	0.722	0.756	0.844	0.835	0.947	0.642	0.292	0.361	0.308	0.895	0.769	0.293	0.251	0.159	0.734	0.753
NCI-H838	0.679	0.653	0.601	0.55	0.146	0.277	0.27	0.261	0.943	0.827	0.858	0.858	0.697	0.921	0.889	0.795	0.797	0.638	0.591	0.242
NCI-H1755	0.601	0.751	0.584	0.643	0.365	0.411	0.402	0.351	0.457	0.405	0.428	0.426	0.352	0.856	0.863	0.82	0.809	0.787	0.477	0.37
HCC-15	0.915	0.824	0.74	0.706	0.53	0.577	0.544	0.496	1.29	1	1.14	0.928	0.407	0.75	0.559	0.343	0.244	0.201	0.867	0.565
NCI-H2087	0.73	0.603	0.753	0.838	0.868	0.843	0.824	0.877	1.26	1.38	0.633	0.313	0.324	0.803	0.488	0.343	0.211	0.205	0.551	0.838
LCLC-103H	0.819	0.755	0.853	0.766	0.516	0.355	0.417	0.478	0.835	0.69	0.611	0.758	0.644	0.745	0.637	0.537	0.621	0.429	0.749	0.481
LK-2	–	0.263	0.231	0.315	–	–	0.266	0.256	0.347	0.544	0.288	0.259	0.12	1.07	1.19	1.11	1.2	0.859	0.199	–
NCI-H2342	0.661	0.787	0.613	0.684	0.316	0.313	0.304	0.318	0.487	0.437	0.318	0.411	0.559	1.05	0.911	–	0.908	0.997	0.788	0.284
ChaGo-K-1	0.71	0.772	0.759	0.769	0.477	0.544	0.587	0.576	0.909	0.859	0.793	0.781	0.807	0.805	0.908	0.839	0.839	0.687	0.627	0.418
HCC-78	0.431	0.46	0.424	0.427	0.317	0.578	0.34	0.37	0.661	0.484	0.393	0.427	0.46	0.515	0.392	0.513	0.443	0.403	0.381	–

Cell Line	relative viability ([1]; first compound 0.02 µM)	relative viability ([1]; first compound 0.06325 µM)	relative viability ([1]; first compound 0.6325 µM)	relative viability ([1]; first compound 2 µM)	relative viability ([2]; first compound 0.02 µM)	relative viability ([2]; first compound 0.06325 µM)	relative viability ([2]; first compound 0.6325 µM)	relative viability ([2]; first compound 2 µM)	relative viability ([3]; first compound 0.0025 µM)	relative viability ([3]; first compound 0.007906 µM)	relative viability ([3]; first compound 0.025 µM)	relative viability ([3]; first compound 0.07906 µM)	relative viability ([3]; first compound 0.25 µM)	relative viability ([4]; first compound 0.0025 µM)	relative viability ([4]; first compound 0.007906 µM)	relative viability ([4]; first compound 0.025 µM)	relative viability ([4]; first compound 0.07906 µM)	relative viability ([4]; first compound 0.25 µM)	relative viability ([1]; first compound 0.2 µM)	relative viability ([2]; first compound 0.2 µM)
NCI-H1666	0.902	0.909	0.926	0.991	0.892	0.822	0.758	0.81	0.726	0.735	0.669	0.637	0.665	0.892	0.758	0.709	0.685	0.59	1.06	0.79
EKVX	0.537	0.627	0.631	0.638	0.411	0.427	0.449	0.358	0.653	0.712	0.583	0.442	0.769	0.809	0.724	0.332	0.379	0.838	0.641	0.464
NCI-H322M	0.855	0.821	0.904	0.828	0.239	0.254	0.248	0.264	0.602	0.436	0.482	0.414	0.425	0.813	0.769	0.677	0.59	0.498	0.712	0.236
HARA	0.511	0.524	0.491	0.5	0.313	0.265	0.254	0.244	0.447	0.394	0.365	0.276	0.215	0.834	0.555	0.58	0.515	0.232	0.531	–
NCI-H1437	0.955	0.823	0.804	0.71	0.411	0.416	0.455	0.479	1.13	0.981	0.625	0.466	0.454	1.24	1.06	0.754	0.664	0.588	0.857	0.3
BEN	0.547	0.541	0.636	0.574	0.263	0.275	0.259	0.314	0.703	0.652	0.412	0.525	0.635	0.757	0.727	0.302	0.408	0.499	0.571	–
LXF-289	0.693	0.828	0.817	0.801	0.203	0.197	0.2	0.202	0.994	0.906	0.818	0.71	0.534	0.956	0.863	0.77	0.661	0.595	0.689	0.184
NCI-H358	0.764	0.535	1.21	0.51	0.145	0.166	0.186	0.198	0.388	0.39	0.331	0.264	0.292	0.49	0.302	0.264	0.18	0.166	0.672	0.174
NCI-H1993	0.837	0.736	0.622	0.6	0.537	0.59	0.468	0.951	0.694	0.716	0.395	0.504	0.472	0.657	0.616	0.678	0.663	0.661	0.647	0.523
NCI-H727	1.02	1.21	1.23	1.35	0.332	0.372	0.332	1.12	0.356	0.386	0.315	0.279	0.355	0.455	0.269	0.359	0.32	0.238	0.903	0.365
LOU-NH91	0.816	0.851	0.809	0.848	0.58	0.501	0.516	0.466	0.769	0.704	0.704	0.676	0.548	0.909	0.805	0.733	0.757	0.549	0.789	0.464
NCI-H1975	0.775	0.745	0.725	0.668	0.382	0.38	0.279	0.239	0.69	0.551	0.473	0.421	0.401	0.973	0.87	0.839	0.334	0.385	0.708	0.333
PC-3 [JPC-3]	0.831	0.798	0.612	0.589	1.04	0.888	0.866	1.02	0.714	0.501	0.506	–	0.568	1	0.969	0.87	0.709	0.574	0.75	1.02
NCI-H2126	0.876	0.719	0.748	0.802	0.548	0.534	0.545	0.432	1.05	0.929	0.632	0.766	0.753	1.01	1.05	0.994	1	0.816	0.744	0.547
LU99A	0.475	0.401	0.492	0.477	0.67	0.457	0.669	0.612	0.365	0.353	0.2	0.214	0.179	0.793	0.817	0.637	0.53	0.438	0.508	0.437
NCI-H23	0.579	0.518	0.612	0.474	0.769	0.741	0.698	0.8	0.256	0.233	0.232	0.158	0.191	0.874	0.675	0.549	0.513	0.343	0.537	0.518
